Source: patent US20260007634A1, “PHARMACEUTICAL COMPOSITIONS FOR THE TREATMENT OF ALLERGIC DISEASES” (KINKI UNIVERSITY, priority 2022, published 2026)

Key:
[1] = tested on: BAFF; experiment: Serum BAFF ELISA, bronchial asthma mice; assay type: in vivo, mouse; details: OVA bronchial asthma; serum day 28; oral 10 mg/kg (dexamethasone 2 mg/kg); control 97, vehicle 1319
Experimental: A 0.2 mL dose of 50 μg ovalbumin (OVA) and 2 mg Alum mixture was administered to 6-week-old female Balb/c mice (Japan SLC Inc.) (day 0 of the example). Alum was used as an adjuvant. Seven days later and 14 days later, the Balb/c mice were immunized again with 0.2 mL injections of the above mixture. Starting on day 20, mice were orally treated with 10 mg/kg of norathyriol, 10 mg/kg of mangiferin 8a, 10 mg/kg of tofacitinib (JAK inhibitor), 2 mg/kg of dexamethasone (steroid) and 10 mg/kg of olopatadine (antihistamine) daily for 8 consecutive days. Starting on day 21, 400 μg OVA was administered intranasally, and cough was measured on day 27. […]
Serum was collected from day 28 mice in Examples 14, and BAFF production was measured by enzyme-linked immunosorbent assay (ELISA). This assay was performed using a mouse BAFF ELISA kit (R&D).

[2] = tested on: BAFF; experiment: Serum BAFF ELISA, allergic rhinitis mice; assay type: in vivo, mouse; details: OVA allergic rhinitis; serum day 28; oral 10 mg/kg (dexamethasone 2 mg/kg); control 157, vehicle 1450
Experimental: (§1) A 0.2 mL dose of 50 μg ovalbumin (OVA) and 2 mg Alum mixture was administered to 6-week-old female Balb/c mice (Japan SLC Inc.) (day 0 of the example). Alum was used as an adjuvant. Seven days later and 14 days later, the Balb/c mice were immunized again with 0.2 mL injections of the above mixture. Starting on day 20, mice were orally treated with 10 mg/kg of norathyriol, 10 mg/kg of mangiferin 8a, 10 mg/kg of tofacitinib (JAK inhibitor), 2 mg/kg of dexamethasone (steroid) and 10 mg/kg of olopatadine (antihistamine) daily for 8 consecutive days. Starting on day 21, 400 μg OVA was administered intranasally, and nose-scratching behavior was measured on day 27. Note that tofacitinib, dexamethasone, and olopatadine are currently in clinical use in allergic rhinitis and were used as control drugs in this example.
Serum was collected from day 28 mice in Examples 6 and 7, and BAFF production was measured by enzyme-linked immunosorbent assay (ELISA). This assay was performed using a mouse BAFF ELISA kit (R&D).

[3] = tested on: IL-4; experiment: Serum IL-4 ELISA, bronchial asthma mice; assay type: in vivo, mouse; details: OVA bronchial asthma; serum day 28; oral 10 mg/kg (dexamethasone 2 mg/kg); control 282, vehicle 863
Experimental: as §1, with “cough” for “nose-scratching behavior”
Serum was collected from day 28 mice in Examples 14, and IL-4 production was measured by enzyme-linked immunosorbent assay (ELISA). This assay was performed using a mouse IL-4 ELISA kit (R&D).

[4] = tested on: Balb/c mice with ovalbumin-induced allergic rhinitis; experiment: Sneezing, ovalbumin-induced allergic rhinitis mice; assay type: in vivo, mouse; details: OVA allergic rhinitis; oral daily 8 days from day 20, 10 mg/kg (dexamethasone 2 mg/kg); measured day 27; vs vehicle group
Experimental: as §1, with “sneezing” for “nose-scratching behavior”
The group that was just immunized with OVA is called the subject group, the one that received norathyriol is called the norathyriol group, the one that received mangiferin 8a is called the mangiferin 8a group, the one that received tofacitinib is called the tofacitinib group, the one that received dexamethasone is called the dexamethasone group, and the one that received olopatadine is called the olopatadine group. Each group consisted of five animals.

[5] = tested on: NF-κB p52; experiment: BAFF-stimulated B cells, nuclear NF-κB p52 (Western blotting); assay type: cell-based, mouse; details: vs 100 ng/mL BAFF; 100 μM mangiferin, 20 μM 1,3,5,6-tetrahydroxyxanthone, 10 μM others
Experimental: Spleens were harvested from 6-week-old male Balb/c mice and B cells were isolated. After isolation, the cells were seeded in […] dish and cultured in RPMI 1640 medium for 1 day and used as control. In addition, B cells were seeded into 100 mm^2 dish, and after 1 day of culture, 100 ng/mL BAFF was added and cultured for 1 h. Furthermore, B cells were seeded in […] dish, and after 1 day of culture, 100 μM mangiferin, 10 μM mangiferin 8a, 10 μM norathyriol, 20 μM 1,3,5,6-tetrahydroxyxanthone, 10 μM xanthohydrol, 10 μM of α-mangostin, and 10 μM of γ-mangostin were added to B cells, and after 23 h, 100 ng/mL BAFF was added to each, and the cells were incubated for 1 h. All were incubated at 37° C. and 5% CO2.
Proteins were extracted with cell lysate and used as samples. Each sample was transferred to a PVDF membrane after SDSPAGE and assayed with anti-phospho-NIK, anti-NIK, anti-NF-κB p52, anti-NF-κB p65 and anti-Lamin antibodies.
The antibody species is indicated in the vertical direction. Specifically, in the case of anti-phospho-NIK antibody (described as “Phospho-NIK”), anti-NIK antibody (described as “NIK”), anti-NF-κB p52 antibody (described as “NF-κB p52 nuclear”), anti-NF-κB p65 antibody (described as “NF-κB p65 nuclear”) and anti-Lamin antibody (described as “Lamin”).

| SMILES | amount of BAFF [1] | amount of BAFF [2] | amount of IL-4 [3] | number of sneezing [4] | nuclear NF-κB p52 band (immunoblotting) [5] |
| --- | --- | --- | --- | --- | --- |
| C[C@@H]1C[C@H]2[C@@H]3CCC4=CC(=O)C=C[C@]4(C)[C@@]3(F)[C@@H](O)C[C@]2(C)[C@@]1(O)C(=O)CO [dexamethasone] | 321 pg/mL | 266 pg/mL | 359 pg/mL | – | – |
| CN(C)CC/C=C1/c2ccccc2COc2ccc(CC(=O)O)cc21 [olopatadine] | 1304 pg/mL | 1691 pg/mL | 781 pg/mL | significantly decreased the number of sneezing | – |
| O=c1c2cc(O)c(O)cc2oc2cc(O)cc(O)c12 [norathyriol, 1,3,6,7-tetrahydroxyxanthone] | 649 pg/mL | 629 pg/mL | 545 pg/mL | significantly decreased the number of sneezing | fainter |
| C[C@@H]1CCN(C(=O)CC#N)C[C@@H]1N(C)c1ncnc2[nH]ccc12 [tofacitinib] | 902 pg/mL | 1041 pg/mL | 831 pg/mL | significantly decreased the number of sneezing | – |
